How the values were obtained:
Assay type in all cases: in vivo
[1] = tested on: barnyardgrass (Echinochloa crus-galli); test: Test A postemergence barnyardgrass; settings: Echinochloa crus-galli, post-emergence, 240 h, 0 to 100 scale, 0 is no effect, 100 is complete control, read-out: Plant response rating, Barnyardgrass; for pest or weed control at 125 g/ha: 125 g ai/ha; for pest or weed control at 500 g/ha: 500 g ai/ha
In short: (§1)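 Visual injury rating, 0–100 scale (0 = no effect, 100 = complete control), versus untreated controls ~10 d after treatment in greenhouse. Pre: directed soil spray onto seeded loam/sand. Post: foliar spray at 2–10 cm, 1–2 leaf stage. Solvent-surfactant formulation.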

[2] = tested on: pigweed (Amaranthus retroflexus); test: Test A preemergence pigweed; settings: Amaranthus retroflexus, pre-emergence, 240 h, 0 to 100 scale, 0 no effect, 100 complete control, read-out: Pigweed plant response rating; for pest or weed control at 125 g/ha: 125 g ai/ha; for pest or weed control at 500 g/ha: 500 g ai/ha
In short: as §1

[3] = tested on: wheat (Triticum aestivum); test: Test A postemergence wheat; settings: Triticum aestivum, post-emergence, 240 h, 0 to 100 scale, 0 is no effect, 100 is complete control, read-out: Plant response rating, Wheat; for plant injury at 125 g/ha: 125 g ai/ha; for plant injury at 500 g/ha: 500 g ai/ha
In short: as §1

kochia (Kochia scoparia) [4] = test: Test A postemergence kochia; settings: Bassia scoparia, post-emergence, 240 h, 0 to 100 scale, 0 is no effect, 100 is complete control, read-out: Plant response rating, Kochia; for pest or weed control at 125 g/ha: 125 g ai/ha; for pest or weed control at 500 g/ha: 500 g ai/ha
In short: as §1

[5] = tested on: pigweed (Amaranthus retroflexus); test: Test A postemergence pigweed; settings: Amaranthus retroflexus, post-emergence, 240 h, 0 to 100 scale, 0 is no effect, 100 is complete control, read-out: Plant response rating, Pigweed; for pest or weed control at 125 g/ha: 125 g ai/ha; for pest or weed control at 500 g/ha: 500 g ai/ha
In short: as §1

kochia (Kochia scoparia) [6] = test: Test A preemergence kochia; settings: Bassia scoparia, pre-emergence, 240 h, 0 to 100 scale, 0 no effect, 100 complete control, read-out: Kochia plant response rating; for pest or weed control at 125 g/ha: 125 g ai/ha; for pest or weed control at 500 g/ha: 500 g ai/ha
In short: as §1

[7] = tested on: barnyardgrass (Echinochloa crus-galli); test: Test B flooded paddy test barnyardgrass; settings: Echinochloa crus-galli, Table B, Flood, scale 0 to 100, read-out: Plant response rating; for pest or weed control at 250 g/ha: 250 g ai/ha; for pest or weed control at 1000 g/ha: 1000 g ai/ha
In short: (§2)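 Water-applied paddy treatment: compound dosed into 3 cm flood on 2-leaf plants, read visually versus controls after 13 to 15 d.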

[8] = tested on: sedge, umbrella (small-flower umbrella sedge, Cyperus difformis); test: Test B flooded paddy test sedge, umbrella; settings: Cyperus difformis, Table B, Flood, scale 0 to 100, read-out: Plant response rating; for pest or weed control at 250 g/ha: 250 g ai/ha; for pest or weed control at 1000 g/ha: 1000 g ai/ha
In short: as §2

[9] = tested on: ducksalad (Heteranthera limosa); test: Test B flooded paddy test ducksalad; settings: Heteranthera limosa, Table B, Flood, scale 0 to 100, read-out: Plant response rating; for pest or weed control at 250 g/ha: 250 g ai/ha; for pest or weed control at 1000 g/ha: 1000 g ai/ha
In short: as §2

[10] = tested on: blackgrass (Alopecurus myosuroides); test: Test A postemergence blackgrass; settings: Alopecurus myosuroides, post-emergence, 240 h, 0 to 100 scale, 0 is no effect, 100 is complete control, read-out: Plant response rating, Blackgrass; for pest or weed control at 125 g/ha: 125 g ai/ha; for pest or weed control at 500 g/ha: 500 g ai/ha
In short: as §1

[11] = tested on: ryegrass, Italian (Italian ryegrass, Lolium multiflorum); test: Test A postemergence ryegrass, Italian; settings: Lolium multiflorum, post-emergence, 240 h, 0 to 100 scale, 0 is no effect, 100 is complete control, read-out: Plant response rating, Ryegrass, Italian; for pest or weed control at 125 g/ha: 125 g ai/ha; for pest or weed control at 500 g/ha: 500 g ai/ha
In short: as §1

[12] = tested on: ragweed (common ragweed, Ambrosia elatior); test: Test A postemergence ragweed; settings: Ambrosia artemisiifolia, post-emergence, 240 h, 0 to 100 scale, 0 is no effect, 100 is complete control, read-out: Plant response rating, Ragweed; for pest or weed control at 125 g/ha: 125 g ai/ha; for pest or weed control at 500 g/ha: 500 g ai/ha
In short: as §1

[13] = tested on: galium (catchweed bedstraw, Galium aparine); test: Test A postemergence galium; settings: Galium, post-emergence, 240 h, 0 to 100 scale, 0 is no effect, 100 is complete control, read-out: Plant response rating, Galium; for pest or weed control at 125 g/ha: 125 g ai/ha; for pest or weed control at 500 g/ha: 500 g ai/ha
In short: as §1

[14] = tested on: ryegrass, Italian (Italian ryegrass, Lolium multiflorum); test: Test A preemergence ryegrass, Italian; settings: Lolium multiflorum, pre-emergence, 240 h, 0 to 100 scale, 0 no effect, 100 complete control, read-out: Ryegrass, Italian plant response rating; for pest or weed control at 125 g/ha: 125 g ai/ha; for pest or weed control at 500 g/ha: 500 g ai/ha
In short: as §1

rice (Oryza sativa) = test: Test B flooded paddy test rice; settings: Oryza sativa, Table B, Flood, scale 0 to 100, read-out: Plant response rating; for plant injury at 250 g/ha: 250 g ai/ha; for plant injury at 1000 g/ha: 1000 g ai/ha
In short: as §2

[15] = tested on: foxtail, giant (giant foxtail, Setaria faberii); test: Test A preemergence foxtail, giant; settings: Setaria faberi, pre-emergence, 240 h, 0 to 100 scale, 0 no effect, 100 complete control, read-out: Foxtail, Giant plant response rating; for pest or weed control at 125 g/ha: 125 g ai/ha; for pest or weed control at 500 g/ha: 500 g ai/ha
In short: as §1

[16] = tested on: ragweed (common ragweed, Ambrosia elatior); test: Test A preemergence ragweed; settings: Ambrosia artemisiifolia, pre-emergence, 240 h, 0 to 100 scale, 0 no effect, 100 complete control, read-out: Ragweed plant response rating; for pest or weed control at 125 g/ha: 125 g ai/ha; for pest or weed control at 500 g/ha: 500 g ai/ha
In short: as §1

[17] = tested on: barnyardgrass (Echinochloa crus-galli); test: Test A preemergence barnyardgrass; settings: 0 to 100 scale; for Plant response rating, Barnyardgrass: 500 g ai/ha, 0 is no effect, 100 is complete control; for pest or weed control at 125 g/ha: Echinochloa crus-galli, pre-emergence, 240 h, 125 g ai/ha, 0 no effect, 100 complete control, read-out: Barnyardgrass plant response rating
In short: as §1

[18] = tested on: foxtail, giant (giant foxtail, Setaria faberii); test: Test A postemergence foxtail, giant; settings: Setaria faberi, post-emergence, 240 h, 0 to 100 scale, 0 is no effect, 100 is complete control, read-out: Plant response rating, Foxtail, Giant; for pest or weed control at 125 g/ha: 125 g ai/ha; for pest or weed control at 500 g/ha: 500 g ai/ha
In short: as §1

corn (Zea mays) = test: Test A postemergence corn; settings: Zea mays, post-emergence, 240 h, 0 to 100 scale, 0 is no effect, 100 is complete control; for Corn plant response rating (crop injury, 0 = no effect, 100 = complete kill) at 125 g/ha: 125 g ai/ha; for Corn plant response rating (crop injury, 0 = no effect, 100 = complete kill) at 500 g/ha: 500 g ai/ha
In short: as §1

| Compound | pest or weed control at 125 g/ha [1] [%] | pest or weed control at 500 g/ha [1] [%] | pest or weed control at 125 g/ha [2] [%] | pest or weed control at 500 g/ha [2] [%] | plant injury at 125 g/ha [3] [%] | plant injury at 500 g/ha [3] [%] | pest or weed control at 125 g/ha (kochia (Kochia scoparia) [4]) [%] | pest or weed control at 500 g/ha (kochia (Kochia scoparia) [4]) [%] | pest or weed control at 125 g/ha [5] [%] | pest or weed control at 500 g/ha [5] [%] | pest or weed control at 125 g/ha (kochia (Kochia scoparia) [6]) [%] | pest or weed control at 500 g/ha (kochia (Kochia scoparia) [6]) [%] | pest or weed control at 250 g/ha [7] [%] | pest or weed control at 1000 g/ha [7] [%] | pest or weed control at 250 g/ha [8] [%] | pest or weed control at 1000 g/ha [8] [%] | pest or weed control at 250 g/ha [9] [%] | pest or weed control at 1000 g/ha [9] [%] | pest or weed control at 125 g/ha [10] [%] | pest or weed control at 500 g/ha [10] [%] | other results |
| --- | --- | --- | --- | --- | --- | --- | --- | --- | --- | --- | --- | --- | --- | --- | --- | --- | --- | --- | --- | --- | --- |
| O=C1NCCC(c2ccc(C(F)(F)F)cc2)C1C(=O)Nc1ccccc1Cl (centres unmarked) [Compound 13, N-(2-chlorophenyl)-2-oxo-4-[4-(trifluoromethyl)phenyl]-3-piperidinecarboxamide] | 30 | 90 | 0 | 0 | 0 | 0 | 0 | 0 | 0 | 0 | 0 | 40 | 0 | 40 | 0 | 0 | 70 | 100 | 0 | 0 | pest or weed control at 125 g/ha [11]: 0%; pest or weed control at 500 g/ha [11]: 0%; pest or weed control at 125 g/ha [12]: 0%; pest or weed control at 500 g/ha [12]: 0%; pest or weed control at 125 g/ha [13]: 0%; pest or weed control at 500 g/ha [13]: 0%; pest or weed control at 125 g/ha [14]: 0%; pest or weed control at 500 g/ha [14]: 0%; plant injury at 250 g/ha (rice (Oryza sativa)): 0%; plant injury at 1000 g/ha (rice (Oryza sativa)): 0%; pest or weed control at 125 g/ha [15]: 70%; pest or weed control at 500 g/ha [15]: 90%; pest or weed control at 125 g/ha [16]: 0%; pest or weed control at 500 g/ha [16]: 0%; Plant response rating, Barnyardgrass [17]: 70; pest or weed control at 125 g/ha [17]: 40%; pest or weed control at 125 g/ha [18]: 30%; pest or weed control at 500 g/ha [18]: 90%; Corn plant response rating (crop injury, 0 = no effect, 100 = complete kill) at 125 g/ha (corn (Zea mays)): 0%; Corn plant response rating (crop injury, 0 = no effect, 100 = complete kill) at 500 g/ha (corn (Zea mays)): 0% |
| O=C1NCCC(c2ccc(C(F)(F)F)cc2)C1C(=O)Nc1ccccc1F (centres unmarked) [Compound 14, N-(2-fluorophenyl)-2-oxo-4-[4-(trifluoromethyl)phenyl]-3-piperidinecarboxamide] | 20 | 90 | 0 | 0 | 0 | 0 | 0 | 0 | 0 | 0 | 0 | 20 | 30 | 30 | 0 | 0 | 80 | 100 | 0 | 0 | pest or weed control at 125 g/ha [11]: 0%; pest or weed control at 500 g/ha [11]: 0%; pest or weed control at 125 g/ha [12]: 0%; pest or weed control at 500 g/ha [12]: 0%; pest or weed control at 125 g/ha [13]: 0%; pest or weed control at 500 g/ha [13]: 0%; pest or weed control at 125 g/ha [14]: 0%; pest or weed control at 500 g/ha [14]: 0%; plant injury at 250 g/ha (rice (Oryza sativa)): 0%; plant injury at 1000 g/ha (rice (Oryza sativa)): 0%; pest or weed control at 125 g/ha [15]: 30%; pest or weed control at 500 g/ha [15]: 90%; pest or weed control at 125 g/ha [16]: 0%; pest or weed control at 500 g/ha [16]: 0%; Plant response rating, Barnyardgrass [17]: 90; pest or weed control at 125 g/ha [17]: 50%; pest or weed control at 125 g/ha [18]: 30%; pest or weed control at 500 g/ha [18]: 90%; Corn plant response rating (crop injury, 0 = no effect, 100 = complete kill) at 125 g/ha (corn (Zea mays)): 0%; Corn plant response rating (crop injury, 0 = no effect, 100 = complete kill) at 500 g/ha (corn (Zea mays)): 0% |
